Patent US5336485A, “Method for protecting animals against tacrine induced cytotoxic injury using sterol compounds” (priority 1993, dated 1994)
Structures can show the parent of a compound that is named as a salt.

What was measured:
male Sprague-Dawley rats [1] = experiment: Global liver ischemia/reperfusion-induced lethality in rats; assay type: in vivo, rat; conditions: ip 20 h prior, global ischemia 60 min; CS 100 mg/kg; cholesterol 64 + tris succinate 100 mg/kg
Experimental: 20 hours prior to global occlusion, one group of 10 rats was provided with 64 mg cholesterol/kg body weight and 100 mg tris succinate/kg body weight by i.p. injection, and another group of 10 rats was provided with 100 mg cholesteryl succinate/kg body weight. A control group of rats was only partially occluded for the one hour period. Ninety percent of the rats pretreated with cholesteryl succinate tris salt survived while only 10% of those pretreated with the combination of cholesterol and tris succinate survived. Table 22 of a partial ischemia study where male Sprague-Dawley rats were subjected to occlusion of the blood supply to the left lateral and median lobes of the liver for 60 minutes followed by reperfusion for 24 hours. During this time, the normal blood supply to the other lobes of the liver was maintained. […] Serum was obtained for AST and ALT measurements.
^a Global (total) or partial liver ischemia was induced 20 hours

male Sprague-Dawley rats [2] = experiment: THA-induced side effects in rats; conditions: 100 mg/kg ip 20 h prior
canine hepatocytes = experiment: EMS-induced cytotoxicity in canine hepatocytes; assay type: cell-based; conditions: 25 μM, 50 mM EMS
[3] = Tissue distribution of alpha-tocopherol and alpha-tocopherol ester in rats; assay type: in vivo, rat
rat hepatocytes [4] = experiment: ATP content of rat hepatocyte suspensions; assay type: cell-based
Source text: It is well known that the succinate molecule is utilized by the cell to produce ATP energy. In the tricarboxylic acid cycle, succinate is oxidized by succinate dehydrogenase to produce ATP. Oxidation occurs in the mitochondria and the mitochondria can utilize both succinate formed in the mitochondria or succinate transported to the mitochondria. Increasing ATP production may enhance cellular repair processes as well as normal metabolic processes. For example, the cell's ability to remove free intracellular Ca^2+ during a toxic insult is related to ATP production. Succinate administration stimulates gluconeogenesis to form glucose 6-phosphate which is used for producing energy anaerobically (ATP formation through glycolysis) and for producing reducing equivalents (NADPH formation through the hexose monophosphate shunt needed for lipid and nucleotide biosynthesis and other biosynthetic reductions and enzymatic reactions, e.g., glutathione reductase). An in vitro experiment was conducted to determine the relationship between the release of succinate from alpha-TS and the cellular ATP level. The experiment was performed by incubating a tocopherol analog in a rat hepatocyte suspension and measuring the ATP level at the beginning and end of the test.
Rat hepatocyte suspensions were subjected to 50 mM EMS and the percentage of cell death, the percentage of intracellular K^+ (a metabolic parameter as discussed above), the depletion of ATP and the effect on lipid peroxidation were monitored.

L1210 leukemia cells = experiment: Doxorubicin in L1210 leukemia bearing CDF1 mice; assay type: in vivo, mouse; conditions: alpha-TS tris salt 100 mg/kg ip
Experimental: The experiments were conducted in accordance with NCI Protocol 1,100. FIGS. 8a-d show the experimental results obtained when male CDF1 mice (n=6) received either vehicle only or 100mg/kg body weight i.p. dose of either alpha-TS or cholesteryl succinate 20 hours prior to DOX administration. FIGS. 8a-d respectively show the results obtained when the mice received 10, 15, 20, and 25 mg DOX/kg body weight. […] FIGS. 9a-d show the experimental results obtained when male CDF1 mice ([…]) were injected (i.p.) with 10^6 murine L1210 leukemia cells followed immediately by an injection of alpha-TS tris salt (100 mg/kg, i.p.) or saline injection (vehicle), and twenty hours later (Day=0) each mouse in three of the groups was i.p. injected with 15, 20, or 25 mg DOX/kg body weight ([…]). Survival was monitored for twenty days.

[5] = Tissue distribution of alpha-tocopherol and alpha-tocopherol ester in rats; assay type: in vivo, rat; conditions: 48 h after single dose
[6] = system: platelet phospholipase A2; conditions: cited from earlier work
[7] = system: mouse melanoma cells B-16; conditions: cited from earlier work
[8] = system: mouse neuroblastoma cells NBP2; conditions: 10 μM; cited from earlier work
human prostate cells = conditions: 10 μM; cited from earlier work
variety of cell types = conditions: cited from earlier work
rat hepatocytes [9] = conditions: cited from earlier work
[10] = (b) ip, peanut oil and ETOH, 1 dose 100 mg/kg, 24 h
[11] = (e) iv, liposomes, 1 dose 100 mg/kg, 24 h
[12] = (f) ip, olive oil, 7 daily doses

SMILES: CC(C)CCC[C@@H](C)[C@H]1CC[C@H]2[C@@H]3CC=C4C[C@@H](OC(=O)CCC(=O)O)CC[C@]4(C)[C@H]3CC[C@]12C [Cholesteryl Succinate tris salt]
- % Survival (male Sprague-Dawley rats [1]): 90%
- Survival (male Sprague-Dawley rats [2]; THA 30.0 mg/kg (vehicle 100%)): 40%
- Salivation (male Sprague-Dawley rats [2]; THA 30.0 mg/kg, 0 to 4 scale (vehicle 2.2 ± 0.4)): 4.0 ± 0.0
- Tremors (male Sprague-Dawley rats [2]; THA 30.0 mg/kg, 0 to 4 scale (vehicle 3.0 ± 0.0)): 4.0 ± 0.0

SMILES: Cc1c(C)c2c(c(C)c1OC(=O)CCC(=O)O)CC[C@@](C)(CCC[C@H](C)CCC[C@H](C)CCCC(C)C)O2 [alpha-TS, d-alpha-tocopheryl succinate]
- protection from lethal effects of EMS (canine hepatocytes): protected both rat and canine hepatocytes from the lethal effects
- Liver Concentration Ester ([3]; 100 mg/kg ip, 24 h): 119 ± 16 nmol/g
- alpha-TS, Blood [3, 10]: 7 nmoles/gm of Tissue
- alpha-TS, Heart [3, 10]: 47 nmoles/gm of Tissue
- alpha-TS, Kidney [3, 10]: 31 nmoles/gm of Tissue
- alpha-TS, Liver [3, 10]: 119 nmoles/gm of Tissue
- alpha-TS, Lung [3, 10]: 90 nmoles/gm of Tissue
- alpha-TS, Plasma [3, 10]: 8 nmoles/gm of Tissue
- alpha-TS, Blood [3, 11]: 6 nmoles/gm of Tissue
- alpha-TS, Heart [3, 11]: 10 nmoles/gm of Tissue
- alpha-TS, Liver [3, 11]: 322 nmoles/gm of Tissue
- alpha-TS, Lung [3, 11]: 4843 nmoles/gm of Tissue
- alpha-TS, Plasma [3, 11]: 5 nmoles/gm of Tissue
- alpha-TS, Blood [3, 12]: 15 nmoles/gm of Tissue
- alpha-TS, Brain [3, 12]: 6 nmoles/gm of Tissue
- alpha-TS, Heart [3, 12]: 34 nmoles/gm of Tissue
- alpha-TS, Kidney [3, 12]: 44 nmoles/gm of Tissue
- alpha-TS, Liver [3, 12]: 161 nmoles/gm of Tissue
- alpha-TS, Lung [3, 12]: 128 nmoles/gm of Tissue
- accumulation of hepatic alpha-TS ([3]; oral): elimination of both the accumulation of hepatic alpha-TS and protection against CCl4 lethality
- Rate of ATP Depletion (rat hepatocytes [4]; 25 μM): 1.0 ± 0.1 nmoles/10^6 cell/hr
- Cellular ATP (rat hepatocytes [4]; 25 μM, 0 Hr): 20.1 ± .5 nmoles/10^6 cells
- Cellular ATP (rat hepatocytes [4]; 25 μM, 6 Hr): 14.2 ± 0.8 nmoles/10^6 cells
- Rate of ATP Depletion (rat hepatocytes [4]; 250 μM): 0.6 ± 0.3 nmoles/10^6 cell/hr
- Cellular ATP (rat hepatocytes [4]; 250 μM, 0 Hr): 15.2 ± 1.6 nmoles/10^6 cells
- Cellular ATP (rat hepatocytes [4]; 250 μM, 6 Hr): 11.7 ± 2.0 nmoles/10^6 cells
- % Initial Intracellular [ATP] (rat hepatocytes [4]; 50 mM EMS, 5 Hrs, 25 μM (Table 15)): 45 ± 2 % Initial
- survival of DOX treated tumor bearing mice (FIG. 9b) (L1210 leukemia cells; DOX 10 mg/kg): no effect on the survival of DOX treated animals
- survival of tumor bearing mice at higher DOX (L1210 leukemia cells; DOX 15 and 25 mg/kg): significant protection from DOX
- alpha-TS detection in tissue [5]: could not be detected
- inhibition of platelet phospholipase A2 activity [6]: inhibits platelet phospholipase A2 activity
- tumor cell growth ([7]; 10 μM): inhibits tumor cell growth
- morphological differentiation [7]: induce morphological differentiation
- tumor cell growth [8]: inhibits tumor cell growth
- tumor cell growth (human prostate cells): inhibits tumor cell growth
- protection against carcinogenic effects of radiation and cancer causing chemicals (variety of cell types): protects a variety of cell types against the carcinogenic effects of radiation and cancer causing chemicals
- cytoprotective effect at 3.5 mM Ca2+ (rat hepatocytes [9]; 3.5 mM Ca2+): eliminated the cytoprotective effect
- protection of rat hepatocytes from toxic effects of drugs (rat hepatocytes [9]; Ca2+ free medium): protected from the toxic effects of drugs
